Paper PMC9401498 (Clinical Cancer Research, 2021)

Experiments:
[1] = tested on: solid tumor xenograft mouse models; settings: preclinical, e.g., RCC, NSCLC, TNBC, hematologic malignancies; alone and in combination; cited from earlier work
[2] = Plasma pharmacokinetics of telaglenastat; type: in vivo, human
tumor cell lines = settings: preclinical, several tumor cell lines; cited from earlier work
[3] = tested on: advanced and/or treatment-refractory solid tumors; experiment: Antitumor activity by RECIST v1.1, all solid tumors; type: in vivo, human
[4] = All dose expansion (N = 58), number (percent) of efficacy evaluable patients

## O=C(Cc1cccc(OC(F)(F)F)c1)Nc1ccc(CCCCc2nnc(NC(=O)Cc3ccccn3)s2)nn1 [telaglenastat, Telaglenastat]
[1]
  effect on tumor growth: cytostatic-suppressive effects against tumor growth
[2]; RCC patient with PR (800 mg BID)
  Cmin: 1,490 ng/mL
[2]; human, in vivo, 600 mg
  half-life: 3.73 h
[2]; human, in vivo, 800 mg
  AUC: 19900 ng·h/mL
[2]; human, in vivo, 800 mg, AUC0–8h, steady state C1D15, 800 mg BID-fed (n = 10), mean (CV%)
  AUC(0-t): 9660 ng·h/mL
[2]; human, in vivo, 800 mg, C max, steady state C1D15, 800 mg BID-fed (n = 10), mean (CV%)
  Cmax: 1770 ng/mL
[2]; human, in vivo, 800 mg, C min, steady state C1D15, 800 mg BID-fed (n = 10), median (range)
  concentration at 15 day of cycle 1: 443 ng/mL
[2]; human, in vivo, 800 mg, Cmax, RCC patient with PR (800 mg BID)
  Cmax: 2960 ng/mL
[2]; human, in vivo, 800 mg, t max, steady state C1D15, 800 mg BID-fed (n = 10), (range)
  Tmax: 4 h
[2]; steady state C1D15, 1,000 mg BID-fed (n = 4), median (range)
  C min: 147 (73.2–221) ng/mL
Tumor cell lines
  antiproliferative activity: cytostatic and cytotoxic antiproliferative activity
[3]; [4]
  Best overall response: Partial response: 1 (1.7)
  Best overall response: Progressive disease: 33 (56.9)
  Best overall response: Stable disease: 24 (41.4)
[3]; BID or TID dose escalation cohorts
  objective responses: No objective responses
[3]; SDs across different tumor types
  patients with time on study ≥6 months: 12 patients
[3]; dose expansion (in an RCC patient)
  patients with PR: 1/58
[3]; dose expansion, 24/58
  patients with SD: 41.4%
[3]; dose expansion, 33/58
  patients with PD: 56.9%
